Measurements reported in patent US20030134863A1, “Preventives/remedies for alzheimer's disease” (priority 2000, published 2003).
Entries after “also recorded” stand apart in the source; their conditions may differ.

Key:
blood LH = experiment: Suppression of blood LH in castrated monkeys; type: in vivo, cynomolgus monkeys (Macaca fascicularis); conditions: castrated male cynomolgus monkeys
Source text: Suppression of blood LH in castrated monkeys
5-(N-Benzyl-N-methylaminomethyl)-1-(2,6-difluorobenzyl)-6-[4-(3-methoxyureido)phenyl]-3-phenythieno[2,3-d]pyrimidine-2,4(1H,3H)-dione hydrochloride was orally administered to castrated male cynomolgus monkeys (Macaca fascicularis), and blood LH was quantified. The male cynomolgus monkeys, used at 4 years 9 months to 6 years 3 months of age at time of experimentation, had been castrated more than 3 months prior to the examination. Test animals [n=3] were given 30 mg/kg (3 ml/kg) of 5-(N-benzyl-N-methylaminomethyl)-1-(2,6-difluorobenzyl)-6-[4-(3-methoxyureido)phenyl]-3-phenylthieno[2,3-d]pyrimidine-2,4(1H,3H)-dione hydrochloride suspended in 0.5% methylcellulose at a final concentration of 1% by oral administration, and control test animals [n=2] were given 3 ml/kg of the 0.5% methylcellulose dispersant alone by oral administration. At 24 hours and immediately before administration and at 2, 4, 6, 8, 24, and 48 hours after administration, blood was collected for heparinized plasma samples via the femoral vein and immediately stored under freezing conditions.
Plasma LH concentrations were determined by a bioassay using mouse testicular cells. The testicular cells were collected from male BALB/c mice (8 to 9 weeks of age) and washed three times with 1 ml of Dulbecco's modified Eagle medium (DMEM-H) containing 20 mM HEPES and 0.2% BSA per testis. After incubation at 37° C. for 1 hour, the cells were passed through a nylon mesh (70 μm) and dispensed at 8×10^5 cells/tube. After the cells were washed twice with 0.4 ml of DMEM-H, 0.4 ml of a DMEM-H solution containing either equine LH (Sigma), as the standard LH, or monkey plasma, finally diluted up to 300 fold, as the test sample, was added, followed by a reaction at 37° C. for 2 hours. The testosterone concentration in the culture supernatant was determined by a radioimmunoassay (CIS Diagnostics), and the LH concentration in the test monkey plasma was calculated from the standard curve for the standard equine LH. […]

LH, FSH concentrations = conditions: patients of Alzheimer's disease, clinical test; cited from earlier work

| Structure (SMILES) | blood LH concentration relative to the value immediately before administration (blood LH; 30 mg/kg oral in 0.5% methylcellulose, in 24 hours after administration, n=3) | blood LH concentration at 48 hours after administration (blood LH; 30 mg/kg oral, 48 hours after administration) | effect on blood LH concentration (in words) (blood LH; 30 mg/kg oral, hydrochloride, 30 mg/kg) | LH, FSH concentrations (LH, FSH concentrations) | progress of Alzheimer's disease (LH, FSH concentrations) |
| --- | --- | --- | --- | --- | --- |
| CONC(=O)Nc1ccc(-c2sc3c(c2CN(C)Cc2ccccc2)c(=O)n(-c2ccccc2)c(=O)n3Cc2c(F)cccc2F)cc1.Cl [5-(N-benzyl-N-methylaminomethyl)-1-(2,6-difluorobenzyl)-6-[4-(3-methoxyureido)phenyl]-3-phenylthieno[2,3-d]pyrimidine-2,4(1H,3H)-dione hydrochloride] | ≤ 20% | re-elevation of the blood LH concentration was noted | rapid fall beginning immediately after administration; also recorded: significant decreasing effect on blood LH concentration | – | – |
| CCNC(=O)[C@@H]1CCCN1C(=O)[C@H](CCCNC(=N)N)NC(=O)[C@H](CC(C)C)NC(=O)[C@@H](CC(C)C)NC(=O)[C@H](Cc1ccc(O)cc1)NC(=O)[C@H](CO)NC(=O)[C@H](Cc1c[nH]c2ccccc12)NC(=O)[C@H](Cc1c[nH]cn1)NC(=O)[C@@H]1CCC(=O)N1 [Leuplin] | – | – | – | lowers the LH, FSH concentrations | inhibits the progress of Alzheimer's disease |
